# Patent publication US20250024846A1, “DEVELOPMENT OF FOOD-GRADE FUNGAL FERMENTATES WITH ANTIMICROBIAL ACTIVITY AND THE USE THEREOF” (Wisconsin Alumni Research Foundation, priority 2021, published 2025)
# Tested on: Staphylococcus aureus
# Assay: Agar diffusion disc test (zone of inhibition)
# Type: cell-based
# Conditions: positive control, 100 μg/mL (FIG. 2b)
# Method: Extraction of fermentates. Screening of the antimicrobial activity of NP extracts produced via liquid-liquid extraction with various organic solvents was performed. The tested organic solvents (i.e., ethyl acetate, chloroform, diethyl ether, dichloromethane, tetrahydrofuran, toluene, EMW (mixture of ethyl acetate:methanol:water), CEF (mixture of chloroform:ethyl acetate:formic acid), and BEA (mixture of benzene:ethanol:ammonia hydroxide)) are described in Table 2. 20 mL of NP1 or NP2 was reacted with 20 mL of an organic solvent in 50 mL conical tubes and incubated overnight at 25±2° C. with shaking at 150 rpm. The mixtures were centrifuged at 5000 g and the organic layer was transferred to a new 50 mL conical tube. The extracts were evaporated until dry under gentle airflow. Then, the extracts were reconstituted in 1 mL of methanol and filtered with a sterile 0.45 μm filtration unit. The methanol solution was tested for antimicrobial activity.
compound,measurement,value
CC1(C)S[C@@H]2[C@H](NC(=O)[C@H](N)c3ccccc3)C(=O)N2[C@H]1C(=O)O [ampicillin],zone of inhibition at 100 µg/mL,~30 mm
